US20130337095A1, “ANTIMICROBIAL COMPOSITION AND ITS METHOD OF USE” (Waikatolink Limited, priority 2012, published 2013)
≈ marks a conversion by molar mass, not a printed value. Counter-ions that a name gives are not always drawn. Like-named read-outs stand apart in the source and are kept apart here.

Assays:
Type in all cases: cell-based
[1] = system: Staphylococcus aureus (NZCC 4410, ATCC 33591, Strain 328 methicillin resistant); test: MIC assay against methicillin-resistant S. aureus
Description: (§1) To exemplify the concept of the present invention, the in vitro activity of three novel plant extracts melaleuca oil, manuka oil, and black walnut hull extract in a specific ratio described herein, were tested against an isolate of various microbes (methicillin-sensitive S. aureus, methicillin-resistant S. aureus, S. pyogenes, S. agalactiae, S. uberis, E. coli, C. albicans) from a reference library.
(§2) MIC90 refers to the minimum inhibitory concentration required to inhibit the growth of 90% of the organisms. The methods and materials used for this preliminary study are outlined in Example 5.
(§3) The test formulation, comprising three novel plant extracts melaleuca oil, manuka oil, and black walnut hull extract in a specific ratio described herein, was serially diluted to give 11 different concentrations. The diluted samples were then incubated with individual microbes, and the MICs were determined as the lowest concentration of test substance that inhibited the growth of the microbe as determined by measurement of OD650 nm using a VersaMax 96 well plate reader. […]

[2] = system: Streptococcus agalactiae (NZRM 2721, ATCC 27956); test: MIC assay against S. agalactiae
Description: as §1, §2, §3

Streptococcus pyogenes = test: MIC assay against S. pyogenes
Description: as §1, §2, §3

[3] = system: Streptococcus uberis (NZRM 2266 NCTC 3858); test: MIC assay against S. uberis
Description: as §1, §2, §3

[4] = system: Pseudomonas aeruginosa (ESR strain 981, NTC 10662, ATCC 25668); test: MIC assay, in-vitro anti P. aeruginosa activity; conditions: antibiotics; for MIC90: Pseudomonas aeruginosa, ATCC25668
Description: To exemplify the concept of the present invention, the in vitro activity of three novel plant extracts melaleuca oil, manuka oil, and black walnut hull extract, and blends of these extracts, were tested against an isolate of Pseudomonas aeruginosa from a reference library. MIC90 refers to the minimum inhibitory concentration required to inhibit the growth of 90% of the organisms. The methods and materials used for this preliminary study are outlined in Example 3.
• The methodology used in this study is based on standard MIC assay methods referenced in numerous publications. • Each of the extracts was serially diluted to give 11 different concentrations. The diluted samples were then incubated with the Pseudomonas aeruginosa (ESR strain 981, NTC 10662, ATCC 25668, DSM 46358, NC/MB 13063). The MICs were determined as the lowest concentration of each extract that inhibits growth of the bacteria as determined by measurement of OD650 nm using a VersaMax 96 well plate reader.
• Tryptic soy agar base (Bacto Difco Media Cat. No. 236940, Becton Dickinson and company). • Mueller II broth cation-adjusted (BBL media Cat. No. 212332, Becton Dickinson and company).
• a) The isolate of Pseudomonas aeruginosa was streaked from −70° C. cryostocks onto Tryptic Soy Agar (TSA) plates and incubated for 24-48 hrs at 37° C. until visible single colonies developed. • b) One colony was picked, using a sterile inoculating loop and used to inoculate sterile 10 ml universals of Mueller II Cation-adjusted broth. Inoculated broths were incubated for approx 18 hrs at 37° C. • c) Following overnight incubation the culture was diluted with fresh sterile Mueller II cation adjusted broth to an OD650 nm of approximately 0.1, equivalent to approx […] (cell number and OD650 nm was determined and optimised prior to commencement of MIC testing). This is the seed broth which was used to inoculate the test wells in each plate. The seed culture was held at 4° C. until required for plating. • d) Stock solutions of each test extract were prepared so that their concentration is 64 μg/ml in the appropriate formulation in Mueller II cation adjusted broth. Once the extract was added to the broth it was mixed using a vortex mixer for approx 30 sec to ensure homogenous dispersion throughout the broth solution. • e) A 96 well microtitre plate was then set up as follows: To all wells, except the first in every row, 100 μl of sterile Mueller II cation adjusted broth was added. The plate was prepared up to 24 hrs in advance and held at −20° C. until ready for use. • f) If the plate was prepared in advance, it needed to be thawed at room temperature. […]

[5] = system: Escherichia coli (NZRN 2220, ATCC 291214); test: MIC assay against E. coli
Description: as §1, §2, §3

[6] = system: Staphylococcus aureus (NZCC865, ATCC12598); test: MIC assay against S. aureus (methicillin-sensitive)
Description: as §1, §2, §3

Molecule: CCN1CCN(c2cc3c(cc2F)c(=O)c(C(=O)O)cn3C2CC2)CC1 [Enfrofloxacin]
- MIC antibiotic reference 24 h ([1]; 24 h): 0.05 µg/mL (≈ 0.139 µM)

Molecule: CC1=C(C(=O)O)N2C(=O)[C@@H](NC(=O)[C@H](N)c3ccccc3)[C@H]2SC1 [Cephalexin, Cephalexin hydrate]
- MIC antibiotic reference 16 h ([2]; 16 h): 0.098 µg/mL
- MIC antibiotic reference 24 h ([2]; 24 h): 0.098 µg/mL

Molecule: CC1(C)S[C@@H]2[C@H](NC(=O)Cc3ccccc3)C(=O)N2[C@H]1C(=O)O [Penicillin, Penicillin G sodium salt]
- MIC antibiotic reference 16 h (Streptococcus pyogenes; 16 h): 0.049 µg/mL
- MIC antibiotic reference 24 h (Streptococcus pyogenes; 24 h): 0.049 µg/mL
- MIC antibiotic reference 16 h ([3]; 16 h): 0.049 µg/mL
- MIC antibiotic reference 24 h ([3]; 24 h): 0.049 µg/mL

Molecule: O=C(O)c1cn(C2CC2)c2cc(N3CCNCC3)c(F)cc2c1=O [G. ciprofloxacin, ciprofloxacin]
- MIC90 ([4]; 18 h, read-out: MIC90 18 h): 0.049 µg/mL (≈ 0.148 µM)
- MIC90 ([4]; 24 h, read-out: MIC90 24 h): 0.098 µg/mL (≈ 0.296 µM)
- MIC antibiotic reference 16 h ([5]; 16 h): 0.049 µg/mL (≈ 0.148 µM)
- MIC antibiotic reference 24 h ([5]; 24 h): 0.049 µg/mL (≈ 0.148 µM)

Molecule: gentamicin [F. gentamicin]
- MIC90 18 h ([4]; 18 h): 0.098 µg/mL
- MIC90 24 h ([4]; 24 h): 3.125 µg/mL

Molecule: [H]/N=C(/N)N[C@H]1[C@H](O)[C@@H](O)[C@H](O[C@@H]2O[C@@H](C)[C@](O)(C=O)[C@H]2O[C@@H]2O[C@@H](CO)[C@H](O)[C@@H](O)[C@@H]2NC)[C@@H](N/C(N)=N\[H])[C@@H]1O [Streptomycin]
- MIC antibiotic reference 16 h [6]: 0.003 µg/mL (≈ 0.00516 µM)

Molecule: C[C@H]1c2cccc(O)c2C(=O)C2=C(O)[C@]3(O)C(=O)C(C(N)=O)=C(O)[C@@H](N(C)C)[C@@H]3[C@@H](O)[C@@H]21 [Doxycycline]
- MIC antibiotic reference 16 h ([1]; 16 h): 0.05 µg/mL (≈ 0.113 µM)
